Laboratory results taken from patent US8889704B2 (Array BioPharma Inc., priority 2011, dated 2014).
Where a name gives a salt, the structure may show the parent alone.

What was measured:
Type in all cases: biochemical
PIM-1 = PIM-1 (Homo sapiens, UniProt P11309); experiment: Enzyme PIM-1 Assay ([33P]ATP incorporation into PIM2tide, filter plate); conditions: averaged IC50; 35 μM ATP, 7.5 μM PIM2tide, 0.25 nM PIM-1, 60 min at 22° C.
In short: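 Ten-point, 3-fold dilution series (10 μM top, 2% DMSO final) tested for inhibition of 33P transfer from 35 μM ATP to 7.5 μM PIM2tide by 0.25 nM PIM-1. Reaction 60 min, 22 °C, pH 7.4 MOPS/MgCl2 buffer; phosphocellulose capture, scintillation counting, IC50 where fitted POC equals 50.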

[1] = biological target: T1, GST-tagged recombinant full-length human Pim-2 (Homo sapiens, UniProt Q9P1W9); experiment: PIM-2 Assay (as Example A); conditions: averaged IC50; 4 μM ATP, 1.0 μM PIM2tide, 1.5 nM Pim-2
T1 construct: GST-tagged recombinant full-length human Pim-2; GST
T1 sequence (Q9P1W9 whole entry): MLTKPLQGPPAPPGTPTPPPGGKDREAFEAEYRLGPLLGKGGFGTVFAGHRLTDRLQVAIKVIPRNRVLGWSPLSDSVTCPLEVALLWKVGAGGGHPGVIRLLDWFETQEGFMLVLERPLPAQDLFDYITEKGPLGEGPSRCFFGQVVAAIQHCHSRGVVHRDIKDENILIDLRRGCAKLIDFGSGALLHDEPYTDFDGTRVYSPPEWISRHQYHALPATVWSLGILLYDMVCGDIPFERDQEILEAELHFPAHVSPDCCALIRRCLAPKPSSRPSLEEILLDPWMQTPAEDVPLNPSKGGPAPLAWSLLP
In short: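 IC50 was derived by 4-parameter logistic fitting of percent-of-control data over a 10-point, 3-fold series (highest 10 μM, 2% DMSO). Reactions held 1.5 nM GST-Pim-2 (full-length, human), 4 μM [γ-33P]ATP and 1.0 μM PIM2tide for 60 min at 22 °C, pH 7.4; 33P-peptide captured on P81 filters.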

recombinant rat PIM-3 = recombinant rat PIM-3 (Rattus norvegicus, UniProt O70444); experiment: PIM-3 Assay (as Example A); conditions: averaged IC50; 30 μM ATP, 3.75 μM PIM2tide, 0.5 nM PIM-3
In short: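 33P incorporation from 30 μM [γ-33P]ATP into 3.75 μM PIM2tide by 0.5 nM rat PIM-3, 60 min at 22 °C in pH 7.4 MOPS buffer, read by P81 filter capture and scintillation counting. Compounds tested in 3-fold dilutions up to 10 μM final, 2% DMSO; percent-of-control data fitted by 4-parameter logistic for IC50.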

Chain of PIM-1 (P11309 whole entry, species assumed): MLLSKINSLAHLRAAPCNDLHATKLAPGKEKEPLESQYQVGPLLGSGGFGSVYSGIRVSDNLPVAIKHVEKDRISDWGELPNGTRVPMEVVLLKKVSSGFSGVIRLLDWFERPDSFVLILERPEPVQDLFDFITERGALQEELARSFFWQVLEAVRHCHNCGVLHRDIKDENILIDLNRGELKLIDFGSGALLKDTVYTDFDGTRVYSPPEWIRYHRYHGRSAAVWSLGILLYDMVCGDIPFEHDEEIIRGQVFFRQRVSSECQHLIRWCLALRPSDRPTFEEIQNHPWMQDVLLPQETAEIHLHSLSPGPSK

| Compound | IC50 (PIM-1) [nM] | IC50 [1] [nM] | IC50 (recombinant rat PIM-3) [nM] |
| --- | --- | --- | --- |
| CCOc1ccc2ccc(-c3nnc4ccc([C@H](N5CC[C@](C)(N)C5)C(F)(F)F)cn34)nc2c1 [Example 262, (S)-1-((S)-1-(3-(7-ethoxyquinolin-2-yl)-[1,2,4]triazolo[4,3-a]pyridin-6-yl)-2,2,2-trifluoroethyl)-3-methylpyrrolidin-3-amine dihydrochloride] | 0.22 | 63 | 0.4 |
| FC(F)(F)[C@@H](c1ccc2nnc(-c3ccc4cccc(C5CC5)c4n3)n2c1)N1C[C@@H]2C[C@H]1CN2 [Example 65, 2-(6-((R)-1-((1S,4S)-2,5-diazabicyclo[2.2.1]heptan-2-yl)-2,2,2-trifluoroethyl)-[1,2,4]triazolo[4,3-a]pyridin-3-yl)-8-cyclopropylquinoline dihydrochloride] | 1.45 | 18 | 2 |
| N[C@H]1CCN([C@H](c2ccc3nnc(-c4ccc5cccc(C6(CO)CC6)c5n4)n3c2)C(F)(F)F)C1 [Example 114, (1-(2-(6-((R)-1-((S)-3-aminopyrrolidin-1-yl)-2,2,2-trifluoroethyl)-[1,2,4]triazolo[4,3-a]pyridin-3-yl)quinolin-8-yl)cyclopropyl)methanol dihydrochloride] | 0.06 | 5.6 | 0.3 |
| CC(C)(C#N)c1cccc2ccc(-c3nnc4ccc([C@@H](N5CC[C@H](N)C5)C(F)(F)F)cn34)nc12 [Example 99, 2-(2-(6-((R)-1-((S)-3-aminopyrrolidin-1-yl)-2,2,2-trifluoroethyl)-[1,2,4]triazolo[4,3-a]pyridin-3-yl)quinolin-8-yl)-2-methylpropanenitrile dihydrochloride] | 0.11 | 55 | 0.6 |
| CCOc1cc2nc(-c3nnc4ccc([C@H](N5CCC(N)(CC)C5)C(F)(F)F)cn34)ccc2cc1F (single isomer, unassigned; diastereomer 1) [Example 251, dihydrochloride] | 0.75 | 102 | 0.8 |
| COc1cc(F)cc2ccc(-c3nnc4ccc([C@@H](N5CC[C@@](C)(N)C5)C(F)(F)F)cn34)nc12 [Example 241, (R)-3-methyl-1-((R)-2,2,2-trifluoro-1-(3-(6-fluoro-8-methoxyquinolin-2-yl)-[1,2,4]triazolo[4,3-a]pyridin-6-yl)ethyl)pyrrolidin-3-amine dihydrochloride] | 2.6 | > 1000 | 17 |
| CC(C)Oc1cc(F)cc2ccc(-c3nnc4ccc([C@H](N5CC[C@](C)(N)C5)C(F)(F)F)cn34)nc12 [Example 216, (S)-3-methyl-1-((S)-2,2,2-trifluoro-1-(3-(6-fluoro-8-isopropoxyquinolin-2-yl)-[1,2,4]triazolo[4,3-a]pyridin-6-yl)ethyl)pyrrolidin-3-amine dihydrochloride] | 0.38 | 56 | 0.8 |
| CCOc1ccc2ccc(-c3nnc4ccc([C@@H](N5CC[C@H](N)C5)C(F)(F)F)cn34)nc2c1 [Example 255, (S)-1-((R)-1-(3-(7-ethoxyquinolin-2-yl)-[1,2,4]triazolo[4,3-a]pyridin-6-yl)-2,2,2-trifluoroethyl)pyrrolidin-3-amine dihydrochloride] | 0.24 | 284 | 0.6 |
| CCOc1cc2nc(-c3nnc4ccc([C@H](N5CC[C@H](CN)C5)C(F)(F)F)cn34)ccc2cc1F [Example 296, ((R)-1-((S)-1-(3-(7-ethoxy-6-fluoroquinolin-2-yl)-[1,2,4]triazolo[4,3-a]pyridin-6-yl)-2,2,2-trifluoroethyl)pyrrolidin-3-yl)methanamine hydrochloride] | 1.51 | > 1000 | 12 |
| N#Cc1cccc2ccc(-c3nnc4ccc([C@@H](N5CC[C@H](N)C5)C(F)(F)F)cn34)nc12 [Example 88, 2-(6-((R)-1-((S)-3-aminopyrrolidin-1-yl)-2,2,2-trifluoroethyl)-[1,2,4]triazolo[4,3-a]pyridin-3-yl)quinoline-8-carbonitrile dihydrochloride] | 3.26 | > 100 | 18 |
| C[C@H](c1ccc2nnc(-c3ccc4cccc(C(C)(C)C)c4n3)n2c1)N1CC[C@H](N)C1 [Example 307, (S)-1-((R)-1-(3-(8-tert-butylquinolin-2-yl)-[1,2,4]triazolo[4,3-a]pyridin-6-yl)ethyl)pyrrolidin-3-amine trihydrochloride] | 1.64 | 62.4 | 6.9 |
| Cc1cc(-c2ccc3ccc(-c4nnc5ccc([C@@H](N6CC[C@H](N)C6)C(F)(F)F)cn45)nc3c2C)n(C)n1 [Example 213, (3S)-1-((1R)-1-(3-(7-(1,3-dimethyl-1H-pyrazol-5-yl)-8-methylquinolin-2-yl)-[1,2,4]triazolo[4,3-a]pyridin-6-yl)-2,2,2-trifluoroethyl)pyrrolidin-3-amine] | 0.64 | > 1000 | 8 |
| N[C@@H]1[C@H]2CN(C(c3ccc4nnc(-c5ccc6cccc(OCC7CC7)c6n5)n4c3)C(F)(F)F)C[C@@H]12 (stereo partly drawn) [Example 26, (1R,5S,6S)-3-(1-(3-(8-(cyclopropylmethoxy)quinolin-2-yl)-[1,2,4]triazolo[4,3-a]pyridin-6-yl)-2,2,2-trifluoroethyl)-3-azabicyclo[3.1.0]hexanesan-6-amine dihydrochloride] | 2.12 | 796 | > 100 |
| N[C@H]1CCN([C@H](c2ccc3nnc(-c4ccc5cc(F)c(C6(CO)CC6)cc5n4)n3c2)C(F)(F)F)C1 [Example 164, (1-(2-(6-((R)-1-((S)-3-aminopyrrolidin-1-yl)-2,2,2-trifluoroethyl)-[1,2,4]triazolo[4,3-a]pyridin-3-yl)-6-fluoroquinolin-7-yl)cyclopropyl)methanol dihydrochloride] | 2.63 | > 100 | 7.3 |
| CC(C)(C)c1cccc2ccc(-c3nnc4ccc([C@@H](N5C[C@@H](N)[C@@H](O)C5)C(F)(F)F)cn34)nc12 [Example 130, (3S,4R)-4-amino-1-((R)-1-(3-(8-tert-butylquinolin-2-yl)-[1,2,4]triazolo[4,3-a]pyridin-6-yl)-2,2,2-trifluoroethyl)pyrrolidin-3-ol dihydrochloride] | 9.03 | 756 | 28 |
| CC(C)Oc1ccc2ccc(-c3nnc4ccc([C@@H](N5CC[C@H](N)C5)C(F)(F)F)cn34)nc2c1C1CC1 [Example 151, (S)-1-((R)-1-(3-(8-cyclopropyl-7-isopropoxyquinolin-2-yl)-[1,2,4]triazolo[4,3-a]pyridin-6-yl)-2,2,2-trifluoroethyl)pyrrolidin-3-amine dihydrochloride] | 0.49 | 85 | 1 |
| Cc1c(C(=O)NC(C)C)ccc2ccc(-c3nnc4ccc([C@@H](N5CC[C@H](N)C5)C(F)(F)F)cn34)nc12 [Example 209, 2-(6-((R)-1-((S)-3-aminopyrrolidin-1-yl)-2,2,2-trifluoroethyl)-[1,2,4]triazolo[4,3-a]pyridin-3-yl)-N-isopropyl-8-methylquinoline-7-carboxamide] | 0.55 | 176 | 0.6 |
| CC(C)Oc1cccc2ccc(-c3nnc4ccc([C@@H](N5CCC(N)(CO)C5)C(F)(F)F)cn34)nc12 (stereo partly drawn) [Example 197, (3-amino-1-((R)-2,2,2-trifluoro-1-(3-(8-isopropoxyquinolin-2-yl)-[1,2,4]triazolo[4,3-a]pyridin-6-yl)ethyl)pyrrolidin-3-yl)methanol dihydrochloride] | 0.3 | 150 | 0.9 |
| CC(C)c1cccc2ccc(-c3nnc4ccc([C@@H](N5CC[C@H](N)C5)C(F)(F)F)cn34)nc12 [Example 41, (S)-1-((R)-2,2,2-trifluoro-1-(3-(8-isopropylquinolin-2-yl)-[1,2,4]triazolo[4,3-a]pyridin-6-yl)ethyl)pyrrolidin-3-amine dihydrochloride] | 0.11 | 16 | 2 |
| COCCc1cccc2ccc(-c3nnc4ccc([C@@H](N5CC[C@H](N)C5)C(F)(F)F)cn34)nc12 [Example 111, (S)-1-((R)-2,2,2-trifluoro-1-(3-(8-(2-methoxyethyl)quinolin-2-yl)-[1,2,4]triazolo[4,3-a]pyridin-6-yl)ethyl)pyrrolidin-3-amine dihydrochloride] | 0.07 | 52 | 1 |
| CC(C)(O)COc1cc2nc(-c3nnc4ccc([C@@H](N5CC[C@H](N)C5)C(F)(F)F)cn34)ccc2cc1F [Example 302, 1-(2-(6-((R)-1-((S)-3-aminopyrrolidin-1-yl)-2,2,2-trifluoroethyl)-[1,2,4]triazolo[4,3-a]pyridin-3-yl)-6-fluoroquinolin-7-yloxy)-2-methylpropan-2-ol dihydrochloride] | 0.22 | 69 | 0.3 |
